pIC50: −log10 of the molar value. Where a SMILES comes first, the peptide text is derived from it. [ ]: non-standard residue; d: D form. The star is where a group is joined. ξ: configuration not given here. Hydrocinnamoyl = O=C(CCc1ccccc1)*; Nicotinoyl = O=C(c1cccnc1)*; ξF = NC(Cc1ccccc1)C(=O)O; Cbz = O=C(OCc1ccccc1)*; Hexanoyl = CCCCCC(=O)*; PhAc = O=C(Cc1ccccc1)*; Boc = CC(C)(C)OC(=O)*; Butyryl = CCCC(=O)*; Bz = O=C(c1ccccc1)*
How the values were obtained:
[1] = target: Replicase polyprotein 1ab (Severe acute respiratory syndrome coronavirus 2, UniProt P0DTD1); assay: Inhibition of recombinant SARS-CoV-2 3CLpro using MCA-AVLQSGFR-Lys(Dnp)-Lys-NH2 as substrate incubated for 1.5 hrs by fluorescence based analysis
[2] = Inhibition of human recombinant Cathepsin L-like protease using Z-FR-AMC as substrate preincubated for 30 mins followed by substrate addition and measured after 1.5 hrs by fluorescence based analysis

Row | SMILES | pIC50 [1] | pIC50 [2]
1 | CC(C)C[C@H](NC(=O)c1ccc[nH]1)C(=O)N[C@H](C=O)Cc1ccccc1 | < 5.00 | 7.42
2 | CC(C)C[C@H](NC(=O)/C=C/c1ccc(Cl)cc1)C(=O)N[C@H](C=O)Cc1ccccc1 | < 5.00 | 7.63
3 | CC(C)C[C@H](NC(=O)/C=C/c1ccccc1)C(=O)N[C@H](C=O)Cc1ccccc1F | < 5.00 | 7.63
4 | CC(C)C[C@H](NC(=O)c1ccccn1)C(=O)N[C@H](C=O)Cc1ccccc1 | < 5.00 | 7.58
5 | CC(C)C[C@H](NC(=O)/C=C/c1ccc(F)cc1)C(=O)N[C@H](C=O)Cc1ccccc1 | < 5.00 | 7.70
6 | CC(C)C[C@H](NC(=O)/C=C/c1ccccc1)C(=O)N[C@H](C=O)Cc1ccc(F)cc1 | < 5.00 | 7.13
7 | CC(C)C[C@H](NC(=O)/C=C/c1ccccc1)C(=O)N[C@H](C=O)CCc1ccccc1 | < 5.00 | 7.59
8 | CC(C)C[C@H](NC(=O)c1ccccc1)C(=O)N[C@H](C=O)Cc1ccccc1 (Bz-Leu-Phe-aldehyde) | < 5.00 | 8.12
9 | CC(C)C[C@H](NC(=O)/C=C/c1ccccc1)C(=O)N[C@H](C=O)Cc1ccccc1Cl | < 5.00 | 7.24
10 | CC(C)[C@H](NC(=O)/C=C/c1ccccc1)C(=O)N[C@H](C=O)Cc1ccccc1 | < 5.00 | 7.66
11 | CC(C)C[C@H](NC(=O)c1ccsc1)C(=O)N[C@H](C=O)Cc1ccccc1 | < 5.00 | 8.09
12 | CC(C)C[C@H](NC(=O)/C=C/c1cccc(F)c1)C(=O)N[C@H](C=O)Cc1ccccc1 | < 5.00 | 7.34
13 | CC(C)C[C@H](NC(=O)OC(C)(C)C)C(=O)N[C@H](C=O)Cc1ccccc1 (Boc-Leu-Phe-aldehyde) | < 5.00 | 6.78
14 | CC(C)C[C@H](NC(=O)/C=C/c1ccccc1)C(=O)N[C@H](C=O)Cc1ccc(C(F)(F)F)cc1 | < 5.00 | 6.60
15 | CC(C)C[C@H](NC(=O)Cc1ccccc1)C(=O)N[C@H](C=O)Cc1ccccc1 (PhAc-Leu-Phe-aldehyde) | < 5.00 | 8.11
16 | CC(C)C[C@H](NC(=O)c1ccco1)C(=O)N[C@H](C=O)Cc1ccccc1 | < 5.00 | 7.76
17 | CC(C)C[C@H](NC(=O)/C=C/c1ccccc1)C(=O)N[C@@H](Cc1ccccc1)C(=O)CCl | < 5.00 | 8.01
18 | O=C[C@H](Cc1ccccc1)NC(=O)[C@H](Cc1cccc(F)c1)NC(=O)/C=C/c1ccccc1 | < 5.00 | 8.18
19 | CC(C)C[C@H](NC(=O)/C=C/c1ccccc1)C(=O)N[C@H](C=O)C(C)C | < 5.00 | 7.63
20 | COc1ccc(C(=O)N[C@@H](CC(C)C)C(=O)N[C@H](C=O)Cc2ccccc2)cc1 | < 5.00 | 8.22
21 | CCCC[C@H](NC(=O)/C=C/c1ccccc1)C(=O)N[C@H](C=O)Cc1ccccc1 | < 5.00 | 6.80
22 | COc1ccc(C[C@@H](C=O)NC(=O)[C@H](CC(C)C)NC(=O)/C=C/c2ccccc2)cc1 | < 5.00 | 6.88
23 | CC(C)C[C@H](NC(=O)/C=C/c1ccccc1)C(=O)N[C@@H](Cc1ccccc1)C(N)=O | < 5.00 | < 6.00
24 | C[C@H](NC(=O)/C=C/c1ccccc1)C(=O)N[C@H](C=O)Cc1ccccc1 | < 5.00 | 7.38

Row | SMILES | pIC50 [1] | pIC50 [2]
25 | CC(C)[C@H](NC(=O)OCc1ccccc1)C(=O)NC(C=O)Cc1ccccc1 (stereo partly drawn) (Cbz-Val-[ξF]-aldehyde) |  | 4.70
26 | CC(C)C[C@H](NC(=O)OCc1ccccc1)C(=O)N[C@H](C=O)Cc1ccccc1 (Cbz-Leu-Phe-aldehyde) | < 5.00 | 8.01
27 | O=C[C@H](Cc1ccccc1)NC(=O)[C@H](Cc1ccc(F)cc1)NC(=O)/C=C/c1ccccc1 | < 5.00 | 8.18
28 | O=C[C@H](Cc1ccccc1)NC(=O)[C@H](Cc1ccc(Br)cc1)NC(=O)/C=C/c1ccccc1 | < 5.00 | 7.94
29 | O=C[C@H](Cc1ccccc1)NC(=O)[C@H](CC1CCCCC1)NC(=O)/C=C/c1ccccc1 | < 5.00 | 7.28
30 | CC(C)C[C@H](NC(=O)c1ccc(Cl)cc1)C(=O)N[C@H](C=O)Cc1ccccc1 | < 5.00 | 8.02
31 | CC(C)C[C@H](NC(=O)/C=C/c1ccccc1)C(=O)N[C@H](C=O)Cc1ccccc1Br | < 5.00 | 6.74
32 | CCCCCC(=O)N[C@@H](CC(C)C)C(=O)N[C@H](C=O)Cc1ccccc1 (Hexanoyl-Leu-Phe-aldehyde) | < 5.00 | 7.46
33 | C=CC(=O)[C@H](Cc1ccccc1)NC(=O)[C@H](CC(C)C)NC(=O)/C=C/c1ccccc1 | < 5.00 | < 6.00
34 | COc1ccc(/C=C/C(=O)N[C@@H](CC(C)C)C(=O)N[C@H](C=O)Cc2ccccc2)cc1 | < 5.00 | 7.26
35 | CCCC(=O)N[C@@H](CC(C)C)C(=O)N[C@H](C=O)Cc1ccccc1 (Butyryl-Leu-Phe-aldehyde) | < 5.00 | 7.14
36 | CC(C)C[C@H](NC(=O)/C=C/c1ccccc1Cl)C(=O)N[C@H](C=O)Cc1ccccc1 | < 5.00 | 8.02
37 | CC(C)C[C@H](NC(=O)c1cc[nH]c1)C(=O)N[C@H](C=O)Cc1ccccc1 | < 5.00 | 7.43
38 | CC(C)C[C@H](NC(=O)C1CCC(F)(F)CC1)C(=O)N[C@H](C=O)Cc1ccccc1 | < 5.00 | 8.20
39 | CC(C)C[C@H](NC(=O)c1ccc([N+](=O)[O-])cc1)C(=O)N[C@H](C=O)Cc1ccccc1 | < 5.00 | 8.09
40 | CC[C@H](C)[C@H](NC(=O)/C=C/c1ccccc1)C(=O)N[C@H](C=O)Cc1ccccc1 | < 5.00 | 6.77
41 | CC(C)C[C@H](NC(=O)c1ccc2ccccc2c1)C(=O)N[C@H](C=O)Cc1ccccc1 | < 5.00 | 8.55
42 | CC(C)C[C@H](NC(=O)/C=C/c1ccc(C(F)(F)F)cc1)C(=O)N[C@H](C=O)Cc1ccccc1 | < 5.00 | 7.12
43 | CSCC[C@@H](C=O)NC(=O)[C@H](CC(C)C)NC(=O)/C=C/c1ccccc1 | < 5.00 | 7.53
44 | CC(C)C[C@H](NC(=O)/C=C/c1cccc(Cl)c1)C(=O)N[C@H](C=O)Cc1ccccc1 | < 5.00 | 7.57
45 | CC(C)C[C@H](NC(=O)/C=C/c1ccccc1)C(=O)N[C@H](C=O)Cc1ccc([N+](=O)[O-])cc1 | < 5.00 | 6.46
46 | CC(C)C[C@H](NC(=O)c1cccnc1)C(=O)N[C@H](C=O)Cc1ccccc1 (Nicotinoyl-Leu-Phe-aldehyde) | < 5.00 | 7.84
47 | CC(C)C[C@H](NC(=O)CCc1ccccc1)C(=O)N[C@H](C=O)Cc1ccccc1 (Hydrocinnamoyl-Leu-Phe-aldehyde) | < 5.00 | 7.74
48 | CCC[C@H](NC(=O)/C=C/c1ccccc1)C(=O)N[C@H](C=O)Cc1ccccc1 | < 5.00 | 6.90

Row | SMILES | pIC50 [1] | pIC50 [2]
49 | O=C[C@H](Cc1ccccc1)NC(=O)[C@H](Cc1ccccc1F)NC(=O)/C=C/c1ccccc1 | < 5.00 | 8.17
50 | COC(=O)/C=C/[C@H](Cc1ccccc1)NC(=O)[C@H](CC(C)C)NC(=O)/C=C/c1ccccc1 | < 5.00 | < 6.00
51 | CC(C)C[C@H](NC(=O)c1cccc2ccccc12)C(=O)N[C@H](C=O)Cc1ccccc1 | < 5.00 | 8.90
52 | CC(C)C[C@H](NC(=O)c1ccncc1)C(=O)N[C@H](C=O)Cc1ccccc1 | < 5.00 | 8.07
53 | CC(C)C[C@H](NC(=O)c1ccc(-c2ccccc2)cc1)C(=O)N[C@H](C=O)Cc1ccccc1 | < 5.00 | 7.68
54 | CC(C)C[C@H](NC(=O)/C=C/c1ccccc1)C(=O)N[C@H](C=O)Cc1cccc(F)c1 | < 5.00 | 6.79
55 | CC(C)C[C@H](NC(=O)Cc1c[nH]c2ccccc12)C(=O)N[C@H](C=O)Cc1ccccc1 | < 5.00 | 8.50
56 | CC(C)C[C@H](NC(=O)c1ccc(F)cc1)C(=O)N[C@H](C=O)Cc1ccccc1 | < 5.00 | 8.01
57 | CCC(=O)[C@H](Cc1ccccc1)NC(=O)[C@H](CC(C)C)NC(=O)/C=C/c1ccccc1 | < 5.00 | < 6.00
58 | CC(C)C[C@H](NC(=O)C1CCOCC1)C(=O)N[C@H](C=O)Cc1ccccc1 | < 5.00 | 7.69
59 | CC(C)C[C@H](NC(=O)/C=C/c1ccc(Br)cc1)C(=O)N[C@H](C=O)Cc1ccccc1 | < 5.00 | 7.42
60 | CC(C)C[C@H](NC(=O)c1ccoc1)C(=O)N[C@H](C=O)Cc1ccccc1 | < 5.00 | 7.62
61 | CC(C)(C)[C@H](NC(=O)/C=C/c1ccccc1)C(=O)N[C@H](C=O)Cc1ccccc1 | < 5.00 | 6.74
62 | CC(C)C[C@H](NC(=O)/C=C/c1ccccc1F)C(=O)N[C@H](C=O)Cc1ccccc1 | < 5.00 | 7.78
63 | CC(C)C[C@H](NC(=O)c1ccccc1F)C(=O)N[C@H](C=O)Cc1ccccc1 | < 5.00 | 8.02
64 | CC(C)C[C@H](NC(=O)c1ccc(Br)cc1)C(=O)N[C@H](C=O)Cc1ccccc1 | < 5.00 | 8.02
65 | C=Cc1ccc(C(=O)N[C@@H](CC(C)C)C(=O)N[C@H](C=O)Cc2ccccc2)cc1 | < 5.00 | 8.03
66 | O=C[C@H](Cc1ccccc1)NC(=O)[C@H](Cc1ccc(Cl)cc1)NC(=O)/C=C/c1ccccc1 | < 5.00 | 8.05
67 | CC(C)C[C@H](NC(=O)c1cccc(F)c1)C(=O)N[C@H](C=O)Cc1ccccc1 | < 5.00 | 8.12
68 | CC(C)C[C@H](NC(=O)/C=C/c1ccccc1)C(=O)N[C@@H](C=O)Cc1ccccc1 | < 5.00 | < 6.00
69 | CC(C)C[C@H](NC(=O)c1ccc2[nH]ccc2c1)C(=O)N[C@H](C=O)Cc1ccccc1 | < 5.00 | 8.69
70 | CC(C)C[C@H](NC(=O)c1cc2ccccc2[nH]1)C(=O)N[C@H](C=O)Cc1ccccc1 | < 5.00 | 7.99
71 | CC(C)C[C@H](NC(=O)C1CCCCC1)C(=O)N[C@H](C=O)Cc1ccccc1 | < 5.00 | 8.22

Reference: ChEMBL document CHEMBL6120945, “Peptidomimetic Analogues Act as Effective Inhibitors against SARS-CoV-2 by Blocking the Function of Cathepsin L” (J Med Chem, 2024)
